What was measured:
[1] = tested on: U87MG, LN428 and LN827 GBM cells; assay: TTFields-induced cytosolic micronuclei clusters with cGAS and AIM2 recruitment (immunofluorescence, confocal); type: cell-based, human; conditions: ribociclib 4.5 μM
Method: FIG. 1C, FIG. 1D, FIG. 1E, and FIG. 1F show exemplary confocal images with z stack showing immunofluorescent staining for cGAS, AIM2, and LAMINA/C with DAPI counter-staining in LN428 GBM cells that were pretreated with either the vehicle (FIG. 1C, FIG. 1E) or ribociclib (4.5 μM) (FIG. 1D, FIG. 1F) to induce G1 arrest, then non-treated (FIG. 1C, FIG. 1D) or treated with TTFields for 24 hours (FIG. 1E,
FIG. 1G provides an exemplary bar graph showing percentages of cells with large cytosolic micronuclei clusters with cGAS and AIM2 recruitment being dependent on TTFields in the 3 indicated GBM cell lines treated as described with respect to FIG. 1C, FIG. 1D, FIG. 1E, and FIG. 1F;
To address this question, cells were pretreated for 24 hours prior to and during a 24 hour exposure to TTFields with ribociclib, a potent inhibitor of cyclin-dependent kinases 4 and 6, to induce G1 arrest^31 (FIG. 1H).
Cells grown on cover slips were fixed with 4% paraformaldehyde for 30 min at 4° C., incubated overnight at 4° C. with different combinations of primary antibodies (dilution 1:500) against indicated antigens and then for 2 hours at room temperature with appropriate fluorochrome-conjugated secondary antibodies, (dilution 1:500). Labeled cells were counterstained with DAPI (Thermo Fisher, Cat #D1306) at 1 μgm/ml and images captured and analyzed, using a Zeiss 800 inverted confocal microscope. […]

LN428 cells = assay: DNA content analysis by propidium iodide (PI) staining; type: cell-based, human; conditions: ribociclib 4.5 μM, 0 and 24 hours

CN(C)C(=O)c1cc2cnc(Nc3ccc(N4CCNCC4)cn3)nc2n1C1CCCC1 [ribociclib]
percentage of cells with cGAS and AIM2-recruited micronuclei clusters after TTFields, G1-arrested cells compared to cycling cells ([1]; 24 hours prior to and during 24 hour TTFields (200 kHz), all 3 lines): consistently decreased
cluster formation, ribociclib treatment alone ([1]; no TTFields): did not increase
G1-S arrest (LN428 cells): effective G1-S arrest
